The values below come from patent publication US8586603B2, “Aminotetraline derivatives” (priority 2009, dated 2013).

Where “and” joins values, the source holds several entries; their conditions need not be identical. Identical values can stand only once.

Series [1] can be described thus: Pig skin permeation from patch. It is filed as in vitro ADME. On the procedure: The in vitro permeation of compound 1 through pig skin from saturated solution (f1) and from a patch (f2) was investigated.
For this permeation experiments Franz diffusion cells with a diffusion area of 2.54 cm^2 and an acceptor volume of approx. 100 mL were used. For the study pig leg skin with a thickness of 300-500 μm was used. The permeation experiments were performed at a temperature of 32° C. and the acceptor medium (phosphate buffer pH 6.2) was slowly stirred. A patch of 2.54 cm^2 area comprising about 5 wt % of compound 1 in a hydrophobic adhesive layer was fixed on the skin surface. The experiments were performed in triplicate (n=3) over a period of 48 hours. During this time period six samples at different time points (after 2, 4, 6, 8, 24 and 48 hours) were taken. After each individual incubation period the concentration of the test compound in the acceptor medium was analysed by HPLC at 275 nm, 20° C., 2.0 mL/min in acetonitrile/water/TFA.

Series [2] addresses T1, human dopamine receptor subtype hD4.4 (Homo sapiens, UniProt P21917).
T1 construct: expressed in transfected cells; host or cells: CHO
T1 sequence (P21917 1-419): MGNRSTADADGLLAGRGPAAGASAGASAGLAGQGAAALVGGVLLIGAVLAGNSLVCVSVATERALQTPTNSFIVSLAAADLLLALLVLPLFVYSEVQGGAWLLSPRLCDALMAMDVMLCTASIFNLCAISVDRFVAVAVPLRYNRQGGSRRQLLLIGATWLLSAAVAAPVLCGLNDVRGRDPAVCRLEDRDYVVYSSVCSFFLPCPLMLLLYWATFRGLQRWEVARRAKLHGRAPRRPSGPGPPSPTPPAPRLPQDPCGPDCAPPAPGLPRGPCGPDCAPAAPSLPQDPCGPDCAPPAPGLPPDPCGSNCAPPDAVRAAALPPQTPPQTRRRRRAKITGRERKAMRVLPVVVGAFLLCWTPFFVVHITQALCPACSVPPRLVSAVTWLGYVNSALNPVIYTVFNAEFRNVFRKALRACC
Nature of the series: Receptor binding assay, [3H]spiperone competition, CHO cell membranes. As to the method: Receptor binding data were determined when performing competition binding assays with membrane preparations of cloned cells (stably transfected Chinese Hamster Ovary cells (CHO)) expressing the human receptors and the following radioligands: [^3H]spiperone at the human dopamine receptor subtypes hD2long, hD2short, D3, and hD4.4. […].
Selectivity ratios were calculated by division of the Ki values of the various compounds at the respective receptors through the Ki values at the 5HT1a receptor.

Series [3] concerns the target T2, human 5-HT1a receptor (Homo sapiens, UniProt P08908).
T2 construct: expressed in transfected cells
T2 sequence (P08908 1-422): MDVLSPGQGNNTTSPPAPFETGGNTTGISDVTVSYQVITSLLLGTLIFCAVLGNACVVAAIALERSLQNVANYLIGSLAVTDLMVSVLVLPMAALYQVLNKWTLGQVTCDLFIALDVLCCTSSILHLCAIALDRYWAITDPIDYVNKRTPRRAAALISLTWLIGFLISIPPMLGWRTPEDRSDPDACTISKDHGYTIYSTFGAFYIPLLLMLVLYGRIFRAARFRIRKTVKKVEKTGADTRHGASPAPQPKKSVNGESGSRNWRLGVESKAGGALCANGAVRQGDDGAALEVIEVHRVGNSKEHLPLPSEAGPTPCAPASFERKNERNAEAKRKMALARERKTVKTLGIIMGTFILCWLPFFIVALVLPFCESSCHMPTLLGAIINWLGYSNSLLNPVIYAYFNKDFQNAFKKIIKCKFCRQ
The series can be described thus: [35S]GTPγS functional assay. It is filed as biochemical. As to the method: Specific binding of [^35S]GTPγS is stimulated by activation of the stably expressed human 5-HT1a receptor in a dose-dependent way by agonists for this GPCR and is determined by measuring the radioactive label of the membrane. Non-linear regression analysis of the resulting dose-response curves yields the EC50 value in [nM] representing the half maximal concentration which is necessary to activate the receptor completely.
On the technique in general: Binding of GTPγS marks nucleotide exchange on a G protein.

Series [4] deals with T3, porcine cortical p5-HT1a serotonin receptor (Sus scrofa, UniProt A0A4X1UTF5).
T3 construct: membrane homogenates prepared from porcine striatal or cortical tissue; from tissue; host or cells: porcine cortex
T3 sequence (A0A4X1UTF5 1-422): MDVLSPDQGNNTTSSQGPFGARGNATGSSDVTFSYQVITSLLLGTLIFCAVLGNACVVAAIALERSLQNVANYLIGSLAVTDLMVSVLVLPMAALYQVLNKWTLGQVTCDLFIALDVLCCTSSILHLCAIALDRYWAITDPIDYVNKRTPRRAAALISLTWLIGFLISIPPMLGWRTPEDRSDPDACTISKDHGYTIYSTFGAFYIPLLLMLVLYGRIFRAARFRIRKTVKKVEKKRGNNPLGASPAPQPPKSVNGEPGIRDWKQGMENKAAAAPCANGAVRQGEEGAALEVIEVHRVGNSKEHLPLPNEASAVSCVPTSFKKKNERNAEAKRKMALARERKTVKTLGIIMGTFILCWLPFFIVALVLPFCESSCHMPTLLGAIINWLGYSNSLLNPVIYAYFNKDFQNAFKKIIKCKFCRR
The series can be described thus: Receptor binding assay, [3H]WAY100635 competition, porcine cortical membranes.

Series [5] deals with T4, porcine cortical p5-HT2 serotonin receptor (Sus scrofa, UniProt P50129).
T4 construct: membrane homogenates prepared from porcine striatal or cortical tissue; from tissue; host or cells: porcine cortex
Nature of the series: Receptor binding assay, [3H]ketanserin competition, porcine cortical membranes.

A short description of series [6]: Stability in PBS buffer pH 7.4 and SGF with 0.5% DMSO. Type of series: physicochemical. As to conditions: 37° C. As to the method: 5 μL DMSO stock solution of compound 1 (2 mg/mL) were diluted with […] PBS buffer pH 7.4 and 995 μL Simulated Gastric Fluid (SGF). After dilution the samples were immediately analysed by HPLC. After the initial injection, each sample solution was repeatedly injected over a period of approximately 12 hours.

Where [7] appears, read: means of 2-8 individual experiments each done as triplicate.

T4 sequence (P50129 whole entry): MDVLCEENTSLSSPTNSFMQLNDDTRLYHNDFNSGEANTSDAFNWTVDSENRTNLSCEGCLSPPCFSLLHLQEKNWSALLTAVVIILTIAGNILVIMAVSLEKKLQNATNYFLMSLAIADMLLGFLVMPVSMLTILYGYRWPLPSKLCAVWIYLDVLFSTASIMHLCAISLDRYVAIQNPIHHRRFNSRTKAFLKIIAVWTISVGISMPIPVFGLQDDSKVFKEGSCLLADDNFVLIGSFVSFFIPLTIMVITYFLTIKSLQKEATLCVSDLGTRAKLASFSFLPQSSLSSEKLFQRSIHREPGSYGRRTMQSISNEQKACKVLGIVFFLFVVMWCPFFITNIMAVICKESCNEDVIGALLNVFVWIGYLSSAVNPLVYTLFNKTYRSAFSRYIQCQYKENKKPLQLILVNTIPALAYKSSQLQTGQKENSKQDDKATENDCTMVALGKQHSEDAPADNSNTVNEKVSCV

One may read the Ki as the dissociation constant of the complex between target and ligand, obtained from inhibition or displacement. Higher therefore signals weaker binding. A word on the EC50: it is the concentration that produces a half-maximal response. One may read the melting point as the temperature of the solid-liquid transition. Molecule `CCCN(CCc1cccs1)C1CCc2cccc(O)c2C1` (stereo not shown) [Compound 1, N-(8-Hydroxytetralin-2-yl)-N-propyl-N-[2-(2-thienyl)ethyl]amine] returned a melting point of 99 °C. For the same molecule, the “penetration of skin in an in vitro skin model of transdermal penetration” value in series [1] (in words) is “able to penetrate skin”. In addition, the “average flux rate from patch” value in series [1] (patch 2.54 cm^2, about 5 wt % compound 1 in hydrophobic adhesive layer, pig leg skin, 32° C., 48 hours) was determined as 4.0 μg/cm^2/h. Further, the “Measured Flux Rate (patch)” value in series [1] (patch, pig skin) is on record as 4.01 μg μg per cm^2/h. Also, the “Extrapolated daily flux rate” value in series [1] (per 30 cm^2 patch/24 hrs) is listed as 2.88 mg. Moreover, in series [2] (setting [7]), the Ki stood at 190 nM. For the same molecule, the “selectivity ratio hD4.4” value in series [2] (vs p5-HT1a) was 260. Also, in series [3] (in words), the “agonist activity at the human 5-HT1a receptor” value is “full agonist activity”. Moreover, the EC50 in series [3] (mean values of 2-8 individual experiments) was 0.65 to 1.9 nM and 1.9 nM. Besides, in series [3] (read-out: intrinsic activity [% rel. to serotonin]), the Emax amounted to 103%. The same molecule yielded an inhibition constant Ki in series [4] (setting [7]) of 0.73 nM. Moreover, in series [4] (reference receptor of the ratio (=1)), the “selectivity ratio p5-HT1a” value stood at 1. In series [5] (setting [7]), this molecule gave an inhibitory constant (Ki) of 3600 nM. Moreover, the “selectivity ratio p5-HT2” value in series [5] (vs p5-HT1a) is on record as 4 900. Moreover, the “degradation (stability)” value in series [6] (PBS buffer pH 7.4, 12 hours) is “No degradation”. In series [6] (simulated gastric fluid (pH 1-2), 12 hours), the “degradation (stability)” value was “No degradation”.
